According to US20250290928A1, “METHOD, KIT AND DEVICE FOR DETECTING EXTRACELLULAR VESICLES” (priority 2022, published 2025):

Experiments:
[1] = tested on: CD9/CD63/CD81 in the extracellular vesicles; assay: Digital CD9/CD63/CD81 sandwich detection with biotinylated detection antibody and streptavidin-conjugated β-galactosidase; assay type: binding, Human; conditions: Example 33, 30° C., 4 h
Procedure: An anti-CD9 antibody (ab58989), an anti-CD63 antibody (ab59479), and an anti-CD81 antibody (ab59477) were buffer-exchanged into Biotinylation Reaction Buffer to provide an antibody solution. A biotinylation reagent NHS-PEG4-Biotin was added to the solution, and the mixture was stirred and then subjected to a reaction at room temperature for 30 minutes. After that, the resultant was washed with Biotinylation Reaction Buffer, and then recovered with Biotinylation Reaction Buffer to provide a biotinylated detection antibody solution. The biotinylated detection antibody solution was stored at 4° C. until use.
For detection of MMP14 activity, 1 mM Custom #2 and a 100 µM resorufin β-D-galactopyranoside solution were diluted with the buffer (4) to prepare a MMP14 and CD9/CD63/CD81 cocktail detection solution (1) containing 10 μM Custom #2 and 5 μM resorufin β-D-galactopyranoside. In addition, the solution was diluted 2-fold with the buffer (4) to prepare a detection solution (2). Nonfluorescent resorufin β-D-galactopyranoside is degraded by β-galactosidase to produce fluorescent resorufin. In this case, the maximum wavelengths of excitation and fluorescence of resorufin are 570 nm and 585 nm, respectively.
The observation of fluorescence derived from each fluorescent substance was performed under the same conditions as in Example 19 to acquire a fluorescence image. In this case, a TRITC filter was used in the observation of the fluorescence from resorufin.

[2] = tested on: β-galactosidase activity inherent in the MDA-MB-231-derived extracellular vesicles; assay: Evaluation of β-galactosidase activity of MDA-MB-231-derived extracellular vesicles in 96-well plate; assay type: biochemical, Human; conditions: Example 33, 30° C., no CD9/CD63/CD81 detection system
Procedure: For detection of MMP14 activity, 1 mM Custom #2 and a 100 µM resorufin β-D-galactopyranoside solution were diluted with the buffer ([…]) containing 10 μM Custom #2 and 5 μM resorufin β-D-galactopyranoside. In addition, the solution was diluted 2-fold with the buffer (4) to prepare a detection solution (2). Nonfluorescent resorufin β-D-galactopyranoside is degraded by β-galactosidase to produce fluorescent resorufin. In this case, the maximum wavelengths of excitation and fluorescence of resorufin are 570 nm and 585 nm, respectively.
In addition, 50 μL of the detection solution (1) was added to 50 μL of each of the prepared standard samples with seven concentrations and the sample for BG measurement, and the resultant solution was used in measurement of MMP14 activity and β-galactosidase activity with a 96-well plate.
Evaluation was performed in the same manner as in Example 1 except that the reaction temperature was set to 30° C. ΔRFU was calculated by subtracting the measured value of the sample for BG measurement from the measured value of each of the samples. In this case, resorufin produced by β-galactosidase activity was simultaneously measured at an excitation wavelength of 545±20 nm and a fluorescence wavelength of 590±20 nm, and ΔRFU was calculated similarly.

In the case of `O=c1ccc2nc3ccc(O[C@@H]4O[C@H](CO)[C@H](O)[C@H](O)[C@H]4O)cc3oc-2c1` [resorufin β-D-galactopyranoside], the “Expected value λ (CD9/CD63/CD81)” value ([1]; EV 0 (BG)) was 0.00927, the “Number of positives (CD9/CD63/CD81)” value ([1]; EV 0 (BG)) was 20 and the “Expected value λ (CD9/CD63/CD81)” value ([1]; EV X1 (sample 10 μg/mL)) was 2.86. The “Number of positives (CD9/CD63/CD81)” value ([1]; EV X1 (sample 10 μg/mL)) was 2,166, the “Expected value λ (CD9/CD63/CD81)” value ([1]; EV X1/3) was 1.87 and the “Number of positives (CD9/CD63/CD81)” value ([1]; EV X1/3) was 2,315. The “Expected value λ (CD9/CD63/CD81)” value ([1]; EV X1/9) was 0.750, the “Number of positives (CD9/CD63/CD81)” value ([1]; EV X1/9) was 1,544 and the “Expected value λ (CD9/CD63/CD81)” value ([1]; EV X1/27) was 0.339. The “Number of positives (CD9/CD63/CD81)” value ([1]; EV X1/27) was 725, the “Expected value λ (CD9/CD63/CD81)” value ([1]; EV X1/81) was 0.0928 and the “Number of positives (CD9/CD63/CD81)” value ([1]; EV X1/81) was 144. For the same compound, the “Expected value λ (CD9/CD63/CD81)” value ([1]; EV X1/243) was 0.0427, the “Number of positives (CD9/CD63/CD81)” value ([1]; EV X1/243) was 78 and the “Expected value λ (CD9/CD63/CD81)” value ([1]; EV X1/729) was 0.0240. For the same compound, the “Number of positives (CD9/CD63/CD81)” value ([1]; EV X1/729) was 44 and the “β-galactosidase activity (temporal changes in fluorescence intensity)” value [2] was “the activity was not able to be detected at all”.
